# Columns and labels:
# SMARCA2 = SMARCA2 (Homo sapiens, UniProt P51531); experiment: SMARCA2 Western blot MV4-11 degradation; assay type: cell-based; settings: 24 h; for Dmax: MV4-11, MV4-11 cells, read-out: SMARCA2 WB MV411 degradation 24 h: Average Dmax %; for DC50: MV4-11 cells, read-out: SMARCA2 WB MV411 degradation 24 h: Average external-Abs DC50
# In short: (§1)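 MV4-11 cells treated with compound for 24 h, lysed in RIPA with protease/phosphatase inhibitors, and SMARCA2 and SMARCA4 (BRG1) levels assessed by Western blot with β-actin loading control and LI-COR fluorescent read-out. Maximal degradation (Dmax %) after 24 h binned into letter codes.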
# SMARCA4 = target: T1, SMARCA4 (Homo sapiens, UniProt P51532); experiment: SMARCA4 Western blot MV4-11 degradation; assay type: cell-based; settings: 24 h; for Dmax: MV4-11, MV4-11 cells, read-out: SMARCA4 WB MV411 degradation 24 h: Average Dmax %; for DC50: MV4-11 cells, read-out: SMARCA4 WB MV411 degradation 24 h: Average external-Abs DC50
# T1 construct: SMARCA2 and SMARCA4 protein degradation in MV4-11 cells; endogenous in cells; host or cells: MV4-11
# In short: as §1
# SMARCA2, sequence (P51531 whole entry): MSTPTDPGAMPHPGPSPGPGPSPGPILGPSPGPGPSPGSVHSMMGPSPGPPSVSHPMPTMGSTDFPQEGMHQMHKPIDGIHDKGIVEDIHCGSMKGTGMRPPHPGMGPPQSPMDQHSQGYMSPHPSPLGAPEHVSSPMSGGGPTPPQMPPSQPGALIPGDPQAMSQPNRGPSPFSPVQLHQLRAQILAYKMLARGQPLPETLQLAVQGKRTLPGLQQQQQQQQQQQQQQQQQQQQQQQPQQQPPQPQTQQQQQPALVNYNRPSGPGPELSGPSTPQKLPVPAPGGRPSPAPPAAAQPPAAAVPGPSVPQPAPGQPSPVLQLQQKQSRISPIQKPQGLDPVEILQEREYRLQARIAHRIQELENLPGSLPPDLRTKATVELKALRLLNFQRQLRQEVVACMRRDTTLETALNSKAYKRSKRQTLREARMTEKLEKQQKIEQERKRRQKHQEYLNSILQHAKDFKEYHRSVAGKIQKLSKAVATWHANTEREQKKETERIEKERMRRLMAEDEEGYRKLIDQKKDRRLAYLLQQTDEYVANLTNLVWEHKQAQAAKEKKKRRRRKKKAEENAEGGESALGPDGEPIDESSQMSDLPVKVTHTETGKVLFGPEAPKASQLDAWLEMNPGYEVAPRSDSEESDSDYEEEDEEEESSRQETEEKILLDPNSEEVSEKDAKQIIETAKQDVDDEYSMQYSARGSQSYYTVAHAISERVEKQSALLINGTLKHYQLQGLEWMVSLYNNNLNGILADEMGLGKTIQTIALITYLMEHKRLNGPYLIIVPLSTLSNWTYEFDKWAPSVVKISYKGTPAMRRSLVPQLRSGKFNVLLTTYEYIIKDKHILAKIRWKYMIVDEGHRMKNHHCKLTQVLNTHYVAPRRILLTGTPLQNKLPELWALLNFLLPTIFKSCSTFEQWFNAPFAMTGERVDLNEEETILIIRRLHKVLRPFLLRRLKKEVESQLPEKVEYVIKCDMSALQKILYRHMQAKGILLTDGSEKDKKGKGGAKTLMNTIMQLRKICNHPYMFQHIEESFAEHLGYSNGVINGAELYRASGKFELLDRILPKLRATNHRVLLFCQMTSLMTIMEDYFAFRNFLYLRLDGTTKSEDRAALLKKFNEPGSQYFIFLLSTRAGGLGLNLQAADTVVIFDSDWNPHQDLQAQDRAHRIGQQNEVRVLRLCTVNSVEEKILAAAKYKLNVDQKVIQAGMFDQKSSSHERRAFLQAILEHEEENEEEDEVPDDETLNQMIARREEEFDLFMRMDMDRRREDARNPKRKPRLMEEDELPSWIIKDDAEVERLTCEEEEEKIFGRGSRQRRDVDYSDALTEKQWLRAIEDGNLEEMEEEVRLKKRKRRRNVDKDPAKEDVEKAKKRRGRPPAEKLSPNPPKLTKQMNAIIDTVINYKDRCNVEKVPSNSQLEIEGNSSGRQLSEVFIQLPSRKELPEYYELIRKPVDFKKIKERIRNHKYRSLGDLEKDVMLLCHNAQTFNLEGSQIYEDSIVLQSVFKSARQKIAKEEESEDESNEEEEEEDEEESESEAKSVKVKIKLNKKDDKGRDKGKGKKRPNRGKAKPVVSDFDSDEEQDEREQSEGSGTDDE
# T1 sequence (P51532 whole entry): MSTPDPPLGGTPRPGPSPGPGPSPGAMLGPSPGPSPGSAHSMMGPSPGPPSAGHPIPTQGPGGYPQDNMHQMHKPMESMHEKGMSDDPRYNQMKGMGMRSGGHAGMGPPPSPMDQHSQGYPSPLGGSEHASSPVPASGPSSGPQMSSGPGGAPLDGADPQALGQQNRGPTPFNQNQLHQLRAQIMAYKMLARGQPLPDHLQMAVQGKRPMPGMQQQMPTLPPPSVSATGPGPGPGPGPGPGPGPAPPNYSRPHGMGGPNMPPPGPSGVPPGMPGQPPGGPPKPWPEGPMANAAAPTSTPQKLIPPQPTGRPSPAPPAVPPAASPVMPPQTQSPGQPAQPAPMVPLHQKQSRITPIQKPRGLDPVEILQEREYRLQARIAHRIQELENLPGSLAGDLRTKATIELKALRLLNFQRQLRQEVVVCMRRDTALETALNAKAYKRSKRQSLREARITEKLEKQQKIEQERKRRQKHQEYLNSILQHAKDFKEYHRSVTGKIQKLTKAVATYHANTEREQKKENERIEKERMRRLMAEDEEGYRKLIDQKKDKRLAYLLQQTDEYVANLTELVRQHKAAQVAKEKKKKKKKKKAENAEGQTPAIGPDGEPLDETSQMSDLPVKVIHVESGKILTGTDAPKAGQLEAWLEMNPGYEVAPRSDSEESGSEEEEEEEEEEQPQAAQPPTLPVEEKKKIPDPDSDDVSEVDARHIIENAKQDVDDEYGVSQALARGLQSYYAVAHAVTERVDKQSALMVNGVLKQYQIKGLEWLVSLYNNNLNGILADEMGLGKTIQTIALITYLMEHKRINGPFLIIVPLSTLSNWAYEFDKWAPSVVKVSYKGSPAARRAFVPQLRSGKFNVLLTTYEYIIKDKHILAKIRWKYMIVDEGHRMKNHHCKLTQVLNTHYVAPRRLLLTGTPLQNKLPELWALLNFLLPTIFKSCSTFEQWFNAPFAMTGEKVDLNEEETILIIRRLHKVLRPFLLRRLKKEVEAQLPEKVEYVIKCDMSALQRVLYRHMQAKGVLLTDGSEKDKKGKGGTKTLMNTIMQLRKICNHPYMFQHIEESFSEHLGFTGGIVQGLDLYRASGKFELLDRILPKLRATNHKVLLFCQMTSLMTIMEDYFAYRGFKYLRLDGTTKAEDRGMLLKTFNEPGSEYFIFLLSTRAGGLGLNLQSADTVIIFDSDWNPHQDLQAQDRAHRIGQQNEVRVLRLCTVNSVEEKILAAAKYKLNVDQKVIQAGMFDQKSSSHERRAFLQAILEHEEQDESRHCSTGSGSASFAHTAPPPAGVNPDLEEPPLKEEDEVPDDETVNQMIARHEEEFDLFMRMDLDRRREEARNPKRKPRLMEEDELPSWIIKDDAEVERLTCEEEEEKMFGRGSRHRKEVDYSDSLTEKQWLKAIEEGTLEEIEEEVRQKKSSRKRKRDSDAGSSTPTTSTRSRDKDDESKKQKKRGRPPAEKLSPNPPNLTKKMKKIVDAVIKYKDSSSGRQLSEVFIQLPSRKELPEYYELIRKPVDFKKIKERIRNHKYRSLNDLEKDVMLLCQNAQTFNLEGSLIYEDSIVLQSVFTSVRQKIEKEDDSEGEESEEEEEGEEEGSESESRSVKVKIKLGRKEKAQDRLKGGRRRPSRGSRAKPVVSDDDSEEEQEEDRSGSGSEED
Structure (SMILES),Dmax (SMARCA2) [%],DC50 (SMARCA2) [nM],Dmax (SMARCA4) [%],DC50 (SMARCA4) [nM]
"Cn1c(=O)n(C2CCC(=O)NC2=O)c2ccc(CCCCCCCc3nccc(N4C5CCC4CN(c4cc(-c6ccccc6O)nnc4N)C5)n3)cc21 (stereo not drawn) [I-287, 3-(5-(7-(4-(3-(3-amino-6-(2-hydroxyphenyl)pyridazin-4-yl)-3,8-diazabicyclo[3.2.1]octan-8-yl)pyrimidin-2-yl)heptyl)-3-methyl-2-oxo-2,3-dihydro-1H-benzo[d]imidazol-1-yl)piperidine-2,6-dione]",70 to 90,< 100,50 to 70,> 1000
Cc1ncsc1-c1ccc(CNC(=O)[C@@H]2C[C@@H](O)CN2C(=O)[C@@H](NC(=O)[C@H]2CC[C@@H](c3cnc(N4C5CCC4CN(c4cc(-c6ccccc6O)nnc4N)C5)nc3)CC2)C(C)(C)C)cc1 [I-336],> 90,< 100,> 90,< 100
"Cc1ncsc1-c1ccc(CNC(=O)[C@@H]2C[C@@H](O)CN2C(=O)[C@@H](NC(=O)[C@H]2CC[C@H](c3cnc(N4C5CCC4CN(c4cc(-c6ccccc6O)nnc4N)C5)nc3)CC2)C(C)(C)C)cc1 [I-337, (2S,4R)-1-((2S)-2-((1r,4S)-4-(2-(3-(3-amino-6-(2-hydroxyphenyl)pyridazin-4-yl)-3,8-diazabicyclo[3.2.1]octan-8-yl)pyrimidin-5-yl)cyclohexanecarboxamido)-3,3-dimethylbutanoyl)-4-hydroxy-N-(4-(4-methylthiazol-5-yl)benzyl)pyrrolidine-2-carboxamide]",> 90,< 100,> 90,< 100
Cc1ncsc1-c1ccc(CNC(=O)[C@@H]2C[C@@H](O)CN2C(=O)[C@@H](NC(=O)[C@H]2CC3(C2)C[C@H](N2CCC(n4cc(-c5cc(-c6ccccc6O)nnc5N)cn4)CC2)C3)C(C)(C)C)cc1 (stereo partly drawn) [I-389],70 to 90,< 100,70 to 90,< 100
Cc1ncsc1-c1ccc(CNC(=O)[C@@H]2C[C@@H](O)CN2C(=O)[C@@H](NC(=O)[C@H]2CC[C@@H](CN3CCC(n4cc(-c5cc(-c6ccccc6O)nnc5N)cn4)CC3)CC2)C(C)(C)C)cc1 [I-402],70 to 90,< 100,< 50,> 1000
Cc1ncsc1-c1ccc(CNC(=O)[C@@H]2C[C@@H](O)CN2C(=O)[C@@H](NC(=O)[C@H]2CC[C@H](CN3CCC(n4cc(-c5cc(-c6ccccc6O)nnc5N)cn4)CC3)CC2)C(C)(C)C)cc1 [I-403],70 to 90,< 100,< 50,501 to 1000
